Data reported in US8013169B2, “Naphthylmethylimidizoles as therapeutic agents” (Allergan, Inc, priority 2007, dated 2011).

Tests used:
Alpha 1A = biological target: T1, Alpha 1A (Homo sapiens, UniProt P35348); assay: RSAT assay, Alpha 1A; assay type: cell-based; conditions: for Alpha 1A (IA) intrinsic activity: ratio of maximal effect of drug to maximal effect of standard full agonist
T1 construct: expressed in transfected cells; host or cells: NIH-3T3
T1 sequence (P35348 1-466): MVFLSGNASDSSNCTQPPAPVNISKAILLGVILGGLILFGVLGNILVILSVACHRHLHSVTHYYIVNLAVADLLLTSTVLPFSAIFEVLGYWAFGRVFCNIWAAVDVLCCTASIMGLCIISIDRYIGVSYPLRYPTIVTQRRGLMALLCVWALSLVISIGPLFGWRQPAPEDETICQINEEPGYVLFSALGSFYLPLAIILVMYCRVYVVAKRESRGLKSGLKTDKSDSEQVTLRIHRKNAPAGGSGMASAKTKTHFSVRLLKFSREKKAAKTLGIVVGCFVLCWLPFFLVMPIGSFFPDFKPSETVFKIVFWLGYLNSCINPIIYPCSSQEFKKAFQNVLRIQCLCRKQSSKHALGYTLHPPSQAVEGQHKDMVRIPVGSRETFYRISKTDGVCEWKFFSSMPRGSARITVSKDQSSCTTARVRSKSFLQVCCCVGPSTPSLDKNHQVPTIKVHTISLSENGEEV
Protocol: (§1) The RSAT assay measures a receptor-mediated loss of contact inhibition that results in selective proliferation of receptor-containing cells in a mixed population of confluent cells. The increase in cell number is assessed with an appropriate transfected marker gene such as […]-galactosidase, the activity of which can be easily measured in a 96-well format. Receptors that activate the G protein, Gq, elicit this response. Alpha2 receptors, which normally couple to Gi, activate the RSAT response when coexpressed with a hybrid Gq protein that has a Gi receptor recognition domain, called Gq/i5.
NIH-3T3 cells are plated at a density of 2×10^6 cells in 15 cm dishes and maintained in Dulbecco's modified Eagle's medium supplemented with 10% calf serum. One day later, cells are cotransfected by calcium phosphate precipitation with mammalian expression plasmids encoding p-SV-β-galactosidase (5-10 μg), receptor (1-2 μg) and G protein (1-2 μg). 40 μg salmon sperm DNA may also be included in the transfection mixture. Fresh media is added on the following day and 1-2 days later, cells are harvested and frozen in 50 assay aliquots. Cells are thawed and 100 μl added to 100 μl aliquots of various concentrations of drugs in triplicate in 96-well dishes. Incubations continue 72-96 hr at 37° C. After washing with phosphate-buffered saline, β-galactosidase enzyme activity is determined by adding 200 μl of the chromogenic substrate (consisting of 3.5 mM o-nitrophenyl-β-D-galactopyranoside and 0.5% nonidet P-40 in phosphate buffered saline), incubating overnight at 30° C. and measuring optical density at 420 nm. The absorbance is a measure of enzyme activity, which depends on cell number and reflects a receptor-mediated cell proliferation. The efficacy or intrinsic activity is calculated as a ratio of the maximal effect of the drug to the maximal effect of a standard full agonist for each receptor subtype. Brimonidine, also called UK14304, the chemical structure of which is shown below, is used as the standard agonist for the alpha2A, alpha2B and alpha2C receptors. The EC50 is the concentration at which the drug effect is half of its maximal effect.
EC50 values are nanomolar. NA stands for “not active” at concentrations less than 10 micromolar. IA stands for “intrinsic activity.”

Alpha 2B = biological target: T2, Alpha 2B (Homo sapiens, UniProt P18089); assay: RSAT assay, Alpha 2B; assay type: cell-based
T2 construct: expressed in transfected cells; host or cells: NIH-3T3
T2 sequence (P18089 1-450): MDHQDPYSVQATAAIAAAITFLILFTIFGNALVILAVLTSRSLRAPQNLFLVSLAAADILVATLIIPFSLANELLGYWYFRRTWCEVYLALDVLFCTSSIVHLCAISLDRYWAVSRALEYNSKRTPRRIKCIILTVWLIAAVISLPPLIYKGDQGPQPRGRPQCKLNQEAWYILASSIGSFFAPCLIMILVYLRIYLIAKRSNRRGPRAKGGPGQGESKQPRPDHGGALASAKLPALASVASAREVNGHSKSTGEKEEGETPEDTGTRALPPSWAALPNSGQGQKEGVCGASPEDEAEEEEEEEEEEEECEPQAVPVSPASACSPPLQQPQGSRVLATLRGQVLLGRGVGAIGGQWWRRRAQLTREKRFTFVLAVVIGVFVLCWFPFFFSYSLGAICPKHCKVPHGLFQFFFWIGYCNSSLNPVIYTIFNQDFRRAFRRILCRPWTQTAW
Protocol: as §1
NIH-3T3 cells are plated at a density of 2×10^6 cells in 15 cm dishes and maintained in Dulbecco's modified Eagle's medium supplemented with 10% calf serum. […] After washing with phosphate-buffered saline, β-galactosidase enzyme activity is determined by adding 200 μl of the chromogenic substrate (consisting of 3.5 mM o-nitrophenyl-β-D-galactopyranoside and 0.5% nonidet P-40 in phosphate buffered saline), incubating overnight at 30° C. and measuring optical density at 420 nm. The absorbance is a measure of enzyme activity, which depends on cell number and reflects a receptor-mediated cell proliferation. The efficacy or intrinsic activity is calculated as a ratio of the maximal effect of the drug to the maximal effect of a standard full agonist for each receptor subtype. […]

Cc1[nH]cnc1Cc1ccc(N)c2ccccc12 [Compound 8, 4-((5-methyl-1H-imidazol-4-yl)methyl)naphthalen-1-amine]
EC50 (Alpha 1A): 0.055 µM
Alpha 1A (IA) intrinsic activity (Alpha 1A): 1.01
EC50 (Alpha 2B; RSAT, NIH-3T3 cells coexpressing Gq/i5, NA = not active at concentrations less than 10 micromolar): 0.146 µM
Alpha 2B (IA) intrinsic activity (Alpha 2B; ratio of maximal effect of drug to maximal effect of standard full agonist brimonidine): 0.46

CNc1ccc(Cc2nc[nH]c2C)c2ccccc12 [Compound 7, N-methyl-4-((5-methyl-1H-imidazol-4-yl)methyl)naphthalen-1-amine]
EC50 (Alpha 1A): 0.013 µM
Alpha 1A (IA) intrinsic activity (Alpha 1A): 1.2
